The source of these data is ChEMBL document CHEMBL3272344, “Synthesis of 5-substituted aminomethyluracils via the Mannich reaction” (J Med Chem, 1976).

Data set [1] deals with Plasmodium gallinaceum. Briefly: Antimalarial activity against Plasmodium gallinaceum B infected in chick at 100 mg/kg. It is filed as functional, organism-based. Also noted: dose 100 mg/kg.
Data set [2] concerns Gallus gallus. Briefly: Toxicity in Plasmodium gallinaceum B infected chick at 100 mg/kg. Conditions: chicken, in vivo. Also noted: dose 100 mg/kg. It is filed as organism-based.
The test system of data set [3] is Plasmodium berghei. Briefly: Antimalarial activity against Plasmodium berghei infected in mouse at 640 mg/kg. It is filed as functional, organism-based. Also noted: dose 640 mg/kg.
Data set [4] relates to Mus musculus. The data set is described as follows: Toxicity in Plasmodium berghei infected mouse at 640 mg/kg. It is filed as organism-based. Also noted: dose 640 mg/kg. Conditions: in vivo.
Data set [5] deals with L1210. Briefly: Antitumor activity against mouse L1210 cells allografted in mouse up to 400 mg/kg. It is filed as functional, organism-based. Details: dose 400 mg/kg.
The test system of data set [6] is Mus musculus. The data set is described as follows: Toxicity in mouse L1210 cells allografted mouse up to 400 mg/kg. Conditions: in vivo. Details: dose 400 mg/kg. It is filed as organism-based.
Data set [7] concerns Plasmodium berghei. Briefly: Antimalarial activity against Plasmodium berghei infected in mouse at 320 mg/kg. It is filed as functional, organism-based. Details: dose 320 mg/kg.
The test system of data set [8] is Mus musculus. The data set is described as follows: Toxicity in Plasmodium berghei infected mouse at 320 mg/kg. Conditions: in vivo. It is filed as organism-based. Details: dose 320 mg/kg.
Data set [9] concerns Plasmodium gallinaceum. The data set is described as follows: Antimalarial activity against Plasmodium gallinaceum B infected in chick at 160 mg/kg. It is filed as functional, organism-based. Details: dose 160 mg/kg.
The test system of data set [10] is Gallus gallus. The data set is described as follows: Toxicity in Plasmodium gallinaceum B infected chick at 160 mg/kg. It is filed as organism-based. Also noted: dose 160 mg/kg. The following applies: chicken, in vivo.
The test system of data set [11] is Plasmodium gallinaceum. The data set is described as follows: Antimalarial activity against Plasmodium gallinaceum B infected in chick at 120 mg/kg. It is filed as functional, organism-based. Details: dose 120 mg/kg.
Data set [12] concerns Gallus gallus. Briefly: Toxicity in Plasmodium gallinaceum B infected chick at 120 mg/kg. It is filed as organism-based. Details: dose 120 mg/kg. The following applies: chicken, in vivo.

Activity calls are given as the source filed them. No cut-off for these calls is given here.

Regarding `CCCCNCc1c[nH]c(=O)[nH]c1=O`, the result in data set [1] and in data set [3] was inactive. Besides, the Activity entry in [2] and in data set [4] was “Non-toxic” in each case.
Consider `Cc1cccc(NCc2c[nH]c(=O)[nH]c2=O)c1`, for which, in [3], the result was inactive. The Activity entry in [4] is given as “Non-toxic”.
For the compound `CN(C)Cc1c[nH]c(=O)[nH]c1=O`, the outcome in data set [5] was inactive. The Activity result in data set [6] is “Non-toxic”.
Consider `O=c1[nH]cc(CNc2ccc(Cl)cc2)c(=O)[nH]1`, for which the result in data set [7] was inactive. Besides, in data set [8], the Activity entry is “Non-toxic”.
Take `O=c1[nH]cc(CNC2CCCCC2)c(=O)[nH]1`: the result in [5], in data set [9] and in [7] was inactive. For the same compound, the Activity result in data set [6], in data set [10] and in data set [8] was “Non-toxic” throughout.
Turning to `COc1ccc(NCc2c[nH]c(=O)[nH]c2=O)cc1`, the outcome in data set [9] and in data set [7] was inactive. Besides, the Activity result in data set [10] and in data set [8] was “Non-toxic” each time.
Turning to `O=c1[nH]cc(CNc2ccccc2)c(=O)[nH]1`, the outcome in data set [5], in [11] and in [3] was inactive. The Activity entry in data set [6], in data set [12] and in data set [4] was “Non-toxic” throughout.
